Patent US9695155B2, “Herbicidal substituted pyrimidinyloxy benzene compounds” (E. I. DU PONT DE NEMOURS AND COMPANY, priority 2013, dated 2017)

Assays:
wheat, winter [1] = assay: Test C preemergence; type: in vivo, Triticum aestivum; details: for Wheat plant response rating: preemergence; for Plant response rating, Wheat: Preemergence, scale 0 to 100, 0 no effect, 100 complete control
Summary of the method: (§1)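 Rated visually on 0–100 (100 = complete control) after 13–15 days under glass. Treatments went onto freshly seeded loam/sand soil or onto emerged plants at the 1- to 4-leaf stage, using a surfactant-containing solvent formulation.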

kochia [2] = assay: Test A preemergence; type: in vivo, Kochia scoparia; details: for Kochia plant response rating: 500 g ai/ha
Summary of the method: (§2)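 Scoring: eye-based comparison with untreated controls, 0 for no effect through 100 for complete control, at about day 10. Treatments: directed soil spray preemergence; foliar spray postemergence on 2–10 cm plants at the one- to two-leaf stage. Medium: loam soil with sand.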

ragweed [3] = assay: Test A postemergence; type: in vivo, Ambrosia elatior
Summary of the method: as §2

barnyardgrass [4] = assay: Test A postemergence; type: in vivo, Echinochloa crus-galli
Summary of the method: as §2

yellow nutsedge = assay: Test C postemergence; type: in vivo, Cyperus esculentus
Summary of the method: as §1

corn = assay: Test A postemergence; type: in vivo, Zea mays
Summary of the method: as §2

barnyardgrass [5] = assay: Test C postemergence; type: in vivo, Echinochloa crus-galli; details: for Barnyardgrass plant response rating / Plant response rating, Barnyardgrass: scale 0 to 100 (0 no effect, 100 complete control)
Summary of the method: as §1

kochia [6] = assay: Test A postemergence; type: in vivo, Kochia scoparia
Summary of the method: as §2

soybean = assay: Test C preemergence; type: in vivo, Glycine max; details: for Soybean plant response rating: preemergence; for Plant response rating, Soybean: Preemergence, scale 0 to 100, 0 no effect, 100 complete control
Summary of the method: as §1

wheat, winter [7] = assay: Test C postemergence; type: in vivo, Triticum aestivum
Summary of the method: as §1

wild oat = assay: Test C postemergence; type: in vivo, Avena fatua
Summary of the method: as §1

morningglory = assay: Test C preemergence; type: in vivo, Ipomoea coccinea; details: for Morningglory plant response rating: preemergence; for Plant response rating, Morningglory: Preemergence, scale 0 to 100, 0 no effect, 100 complete control
Summary of the method: as §1

velvetleaf = assay: Test C preemergence; type: in vivo, Abutilon theophrasti; details: for Velvetleaf plant response rating: preemergence; for Plant response rating, Velvetleaf: Preemergence, scale 0 to 100, 0 no effect, 100 complete control
Summary of the method: as §1

ragweed [8] = assay: Test C postemergence; type: in vivo, Ambrosia elatior
Summary of the method: as §1

Italian ryegrass = assay: Test C preemergence; type: in vivo, Lolium multiflorum; details: for Ryegrass, Italian plant response rating: preemergence; for Plant response rating, Ryegrass, Italian: Preemergence, scale 0 to 100, 0 no effect, 100 complete control
Summary of the method: as §1

waterhemp = assay: Test C postemergence; type: in vivo, Amaranthus rudis
Summary of the method: as §1

galium = assay: Test C postemergence; type: in vivo, Galium aparine; details: for Galium plant response rating / Plant response rating, Galium: scale 0 to 100 (0 no effect, 100 complete control)
Summary of the method: as §1

[9] = 16 g ai/ha, scale 0 to 100 (0 no effect, 100 complete control)
[10] = 62 g ai/ha, scale 0 (no effect) to 100 (complete control)
[11] = 125 g ai/ha, scale 0 (no effect) to 100 (complete control)
[12] = 125 g ai/ha, 0 to 100 scale where 0 is no effect and 100 is complete control
[13] = 500 g ai/ha, 0 to 100 scale where 0 is no effect and 100 is complete control
[14] = 500 g ai/ha, 0 to 100 scale, 0 no effect, 100 complete control
[15] = Postemergence, 31 g ai/ha, scale 0 to 100 (0 no effect, 100 complete control), 13 to 15 days
[16] = Postemergence, 62 g ai/ha, scale 0 to 100 (0 no effect, 100 complete control)
[17] = 16 g ai/ha, postemergence, visual rating, 13 to 15 days
[18] = Postemergence, 31 g ai/ha, 13 to 15 days
[19] = 125 g ai/ha, 0 to 100 scale, 0 no effect, 100 complete control
[20] = 16 g ai/ha, postemergence, 0 is no effect, 100 is complete control
[21] = 31 g ai/ha, postemergence, visual rating, scale 0 to 100 (0 no effect, 100 complete control), 13 to 15 days
[22] = 125 g ai/ha, postemergence, visual rating, scale 0 to 100 (0 no effect, 100 complete control)
[23] = Postemergence, 62 g ai/ha, scale 0 to 100 (0 no effect, 100 complete control), 13 to 15 days
[24] = 31 g ai/ha, postemergence, visual rating, 13 to 15 days
[25] = 125 g ai/ha, postemergence, visual rating

With `CC(C)c1cnn(-c2c(C#N)cccc2Oc2ncc(Cl)cn2)c1` [Compound 85] the “Wheat plant response rating” value (wheat, winter [1]; [9]) was 0, the “Wheat plant response rating” value (wheat, winter [1]; [10]) was 0 and the “Wheat plant response rating” value (wheat, winter [1]; [11]) was 5. The “Plant response rating, Wheat” value (wheat, winter [1]; 31 g ai/ha) was 0, the “Plant response rating, Kochia” value (kochia [2]; [12]) was 80 and the “Kochia plant response rating” value (kochia [2]; 0 to 100 scale, 0 no effect, 100 complete control, approx. 10 days) was 100. The “Plant response rating, Ragweed” value (ragweed [3]; [12]) was 50, the “Plant response rating, Ragweed” value (ragweed [3]; [13]) was 60 and the “Plant response rating, Barnyardgrass” value (barnyardgrass [4]; [12]) was 90. For the same compound, the “Plant response rating, Barnyardgrass” value (barnyardgrass [4]; [14]) was 90, the “Plant response rating (0 to 100), Nutsedge, Yellow” value (yellow nutsedge; 125 g ai/ha, postemergence) was 10 and the “Plant response rating, Nutsedge, Yellow” value (yellow nutsedge; [15]) was 5. For the same compound, the “Plant response rating, Nutsedge, Yellow” value (yellow nutsedge; [16]) was 5, the “Plant response rating, Corn” value (corn; [12]) was 30 and the “Plant response rating, Corn” value (corn; [14]) was 70. For the same compound, the “Barnyardgrass plant response rating” value (barnyardgrass [5]; [17]) was 10, the “Plant response rating (0 to 100), Barnyardgrass” value (barnyardgrass [5]; 125 g ai/ha, postemergence) was 5 and the “Plant response rating, Barnyardgrass” value (barnyardgrass [5]; [18]) was 5. The “Plant response rating, Barnyardgrass” value (barnyardgrass [5]; Postemergence, 62 g ai/ha) was 5, the “Plant response rating, Kochia” value (kochia [6]; [12]) was 70 and the “Plant response rating, Kochia” value (kochia [6]; [13]) was 100. The “Soybean plant response rating” value (soybean; [9]) was 0, the “Soybean plant response rating” value (soybean; [10]) was 40 and the “Soybean plant response rating” value (soybean; [11]) was 60. For the same compound, the “Plant response rating, Soybean” value (soybean; 31 g ai/ha) was 15, the “Plant response rating (0 to 100), Wheat” value (wheat, winter [7]; 125 g ai/ha, postemergence) was 0 and the “Plant response rating, Wheat” value (wheat, winter [7]; [15]) was 0. The “Plant response rating, Wheat” value (wheat, winter [7]; [16]) was 5, the “Plant response rating (0 to 100), Oat, Wild” value (wild oat; 125 g ai/ha, postemergence) was 5 and the “Plant response rating, Oat, Wild” value (wild oat; [15]) was 0. The “Plant response rating, Oat, Wild” value (wild oat; [16]) was 5, the “Morningglory plant response rating” value (morningglory; [9]) was 0 and the “Morningglory plant response rating” value (morningglory; [10]) was 0. The “Morningglory plant response rating” value (morningglory; [11]) was 20, the “Plant response rating, Morningglory” value (morningglory; 31 g ai/ha) was 0 and the “Velvetleaf plant response rating” value (velvetleaf; [9]) was 35. For the same compound, the “Velvetleaf plant response rating” value (velvetleaf; [10]) was 100, the “Velvetleaf plant response rating” value (velvetleaf; [11]) was 100 and the “Plant response rating, Velvetleaf” value (velvetleaf; 31 g ai/ha) was 80. The “Plant response rating (0 to 100), Ragweed” value (ragweed [8]; 125 g ai/ha, postemergence) was 65, the “Plant response rating, Ragweed” value (ragweed [8]; [15]) was 20 and the “Plant response rating, Ragweed” value (ragweed [8]; [16]) was 20. The “Ryegrass, Italian plant response rating” value (Italian ryegrass; [9]) was 0, the “Ryegrass, Italian plant response rating” value (Italian ryegrass; [10]) was 0 and the “Ryegrass, Italian plant response rating” value (Italian ryegrass; [11]) was 50. For the same compound, the “Plant response rating, Ryegrass, Italian” value (Italian ryegrass; 31 g ai/ha) was 0, the “Plant response rating (0 to 100), Waterhemp” value (waterhemp; 125 g ai/ha, postemergence) was 60 and the “Plant response rating, Waterhemp” value (waterhemp; [15]) was 55. The “Plant response rating, Waterhemp” value (waterhemp; [16]) was 70, the “Galium plant response rating” value (galium; [17]) was 40 and the “Plant response rating (0 to 100), Galium” value (galium; 125 g ai/ha, postemergence) was 75. The “Plant response rating, Galium” value (galium; [18]) was 50 and the “Plant response rating, Galium” value (galium; Postemergence, 62 g ai/ha) was 50.

With `N#Cc1cnn(-c2c(Oc3ncc(F)cn3)cccc2C(F)F)c1` [Compound 240] the “Wheat plant response rating” value (wheat, winter [1]; [9]) was 0, the “Wheat plant response rating” value (wheat, winter [1]; [11]) was 5 and the “Plant response rating, Wheat” value (wheat, winter [1]; 62 g ai/ha) was 0. For the same compound, the “Kochia plant response rating (0 to 100 scale)” value (kochia [2]; 125 g ai/ha) was 100, the “Kochia plant response rating” value (kochia [2]; 0 to 100 scale where 0 is no effect and 100 is complete control) was 100 and the “Plant response rating, Ragweed” value (ragweed [3]; [19]) was 100. For the same compound, the “Plant response rating, Ragweed” value (ragweed [3]; [13]) was 100, the “Plant response rating, Barnyardgrass” value (barnyardgrass [4]; [19]) was 90 and the “Plant response rating, Barnyardgrass” value (barnyardgrass [4]; [13]) was 100. The “Plant response rating (0 to 100), Nutsedge, Yellow” value (yellow nutsedge; [20]) was 0, the “Nutsedge, Yellow plant response rating” value (yellow nutsedge; [21]) was 0 and the “Plant response rating, Nutsedge, Yellow” value (yellow nutsedge; [22]) was 5. The “Plant response rating, Nutsedge, Yellow” value (yellow nutsedge; [23]) was 0, the “Plant response rating, Corn” value (corn; [19]) was 30 and the “Plant response rating, Corn” value (corn; [13]) was 90. The “Plant response rating (0 to 100), Barnyardgrass” value (barnyardgrass [5]; [20]) was 0, the “Barnyardgrass plant response rating” value (barnyardgrass [5]; [24]) was 10 and the “Plant response rating, Barnyardgrass” value (barnyardgrass [5]; [25]) was 20. For the same compound, the “Plant response rating, Barnyardgrass” value (barnyardgrass [5]; Postemergence, 62 g ai/ha) was 10, the “Plant response rating, Kochia” value (kochia [6]; [19]) was 100 and the “Plant response rating, Kochia” value (kochia [6]; [13]) was 60. For the same compound, the “Soybean plant response rating” value (soybean; [9]) was 40, the “Soybean plant response rating” value (soybean; [11]) was 98 and the “Plant response rating, Soybean” value (soybean; 62 g ai/ha) was 85. The “Plant response rating (0 to 100), Wheat” value (wheat, winter [7]; [20]) was 0, the “Wheat plant response rating” value (wheat, winter [7]; [21]) was 0 and the “Plant response rating, Wheat” value (wheat, winter [7]; [22]) was 5. The “Plant response rating, Wheat” value (wheat, winter [7]; [23]) was 5, the “Plant response rating (0 to 100), Oat, Wild” value (wild oat; [20]) was 0 and the “Oat, Wild plant response rating” value (wild oat; [21]) was 0. The “Plant response rating, Oat, Wild” value (wild oat; [22]) was 0, the “Plant response rating, Oat, Wild” value (wild oat; [23]) was 0 and the “Morningglory plant response rating” value (morningglory; [9]) was 15. For the same compound, the “Morningglory plant response rating” value (morningglory; [11]) was 75, the “Plant response rating, Morningglory” value (morningglory; 62 g ai/ha) was 75 and the “Velvetleaf plant response rating” value (velvetleaf; [9]) was 25. For the same compound, the “Velvetleaf plant response rating” value (velvetleaf; [11]) was 85, the “Plant response rating, Velvetleaf” value (velvetleaf; 62 g ai/ha) was 80 and the “Plant response rating (0 to 100), Ragweed” value (ragweed [8]; [20]) was 35. For the same compound, the “Ragweed plant response rating” value (ragweed [8]; [21]) was 40, the “Plant response rating, Ragweed” value (ragweed [8]; [22]) was 75 and the “Plant response rating, Ragweed” value (ragweed [8]; [23]) was 55. For the same compound, the “Ryegrass, Italian plant response rating” value (Italian ryegrass; [9]) was 0, the “Ryegrass, Italian plant response rating” value (Italian ryegrass; [11]) was 50 and the “Plant response rating, Ryegrass, Italian” value (Italian ryegrass; 62 g ai/ha) was 0. For the same compound, the “Plant response rating (0 to 100), Waterhemp” value (waterhemp; [20]) was 10, the “Waterhemp plant response rating” value (waterhemp; [21]) was 25 and the “Plant response rating, Waterhemp” value (waterhemp; [22]) was 70. The “Plant response rating, Waterhemp” value (waterhemp; [23]) was 55, the “Plant response rating (0 to 100), Galium” value (galium; [20]) was 35 and the “Galium plant response rating” value (galium; [24]) was 40. For the same compound, the “Plant response rating, Galium” value (galium; [25]) was 70 and the “Plant response rating, Galium” value (galium; Postemergence, 62 g ai/ha, 13 to 15 days) was 55.
